Measured values from publication PMC12251151, “Understanding Anti-Obesity Potential of Four Porphyrin Compounds by Investigating Pancreatic Lipase Inhibition” (Molecules, 2025).
Read-outs that look alike come from different tables or passages of the source.

What was measured:
pancreatic lipase (PL) [1] = biological target: T1, pancreatic lipase (PL) (Sus scrofa, UniProt P00591); experiment: Pancreatic lipase inhibition assay (4-nitrophenyl laurate substrate, absorbance 420 nm); assay type: biochemical, porcine; settings: 37 °C, 2 h, pH 8.2 Tris-HCl
T1 construct: lipase (porcine pancreas); purchased Shanghai Yuanye Co., Ltd., Shanghai, China; host or cells: porcine pancreas
T1 sequence (P00591 1-450): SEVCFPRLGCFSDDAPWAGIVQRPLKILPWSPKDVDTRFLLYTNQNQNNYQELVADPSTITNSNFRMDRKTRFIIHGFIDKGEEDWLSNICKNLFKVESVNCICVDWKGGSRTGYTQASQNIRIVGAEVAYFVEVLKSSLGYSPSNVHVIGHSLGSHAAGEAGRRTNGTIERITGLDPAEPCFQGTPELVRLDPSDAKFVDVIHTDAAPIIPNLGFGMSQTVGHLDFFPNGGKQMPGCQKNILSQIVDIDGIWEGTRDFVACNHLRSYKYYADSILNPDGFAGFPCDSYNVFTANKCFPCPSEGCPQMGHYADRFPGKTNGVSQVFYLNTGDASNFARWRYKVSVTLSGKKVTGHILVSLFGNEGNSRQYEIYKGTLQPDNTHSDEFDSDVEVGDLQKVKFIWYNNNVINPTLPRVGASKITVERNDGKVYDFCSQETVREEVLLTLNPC
Experimental: A total of 250 mg pancreatic lipase was dissolved in 50 mL ultrapure water. After centrifugation at 5000 r/min for 10 min, the supernatant was taken. Then, 80 mg of 4-nitrophenyl laurate was dissolved in 100 mL of 5 mmol/L sodium acetate solution (pH 5.0, containing 1% triton x-100), and dissolved in a boiling water bath. After cooling to room temperature, it was set aside. […] The blank sample solutions were chromatographic methanol solutions containing 2%, 5%, and 10% DMSO.
The activity of PL was determined by referring to the method and making appropriate modifications. A total of 200 μL of different concentrations of four porphyrin compounds, 500 μL of 4-nitrophenyl laurate (0.80 mg/mL), 400 μL of Tris-HCl buffer (pH 8.2, 0.1 mol/L), and 300 μL of pancreatic lipase (5 mg/mL) were reacted in an incubator at 37 °C for 2 h. The reaction solution was centrifuged at 12,000 rpm for 5 min, and 200 μL of the supernatant was added to a 96-well plate.

pancreatic lipase (PL) [2] = biological target: T1, pancreatic lipase (PL); experiment: Fluorescence quenching and binding interaction with PL (Stern-Volmer, double logarithmic, Van't Hoff); set-up: species or system porcine; settings: for Fluorescence quenching mechanism on PL: Stern-Volmer analysis; for Fluorescence quenching mechanism on PL / ΔH^0 / ΔS^0: 298-310 K; for Kd: read-out: Ka (binding constant) (converted); for ΔH^0 / ΔS^0: Van't Hoff; for Main driving forces of binding to PL: from signs of ΔH^0 and ΔS^0
Text: Judged by the Stern–Volmer equation, the formula is referred to (3):(3) F0/F=1+KSV[Q]=1+Kqτ0[Q],
The modified Stern–Volmer equation [34], formula reference (4):(4) F0/F=e^KSV[Q]=e^Kqτ0[Q],
The double logarithmic equation:(5) logF0−F/F=logKa+nlog[Q],
In the formula, F0 and F are the fluorescence intensities of the enzyme before and after the addition of four porphyrin compounds. KSV and Kq represent the fluorescence quenching constant and the quenching rate constant, respectively. τ0 (10^−8 s) is the average lifetime of the fluorescent molecule in the absence of the fluorescence quencher. [Q] denotes the concentration of the porphyrin compound. Ka is the binding constant. n is the number of binding sites.
The relevant thermodynamic parameters were calculated by Equations (6) and (7), and the Van’t Hoff curves of four porphyrin compounds and enzymes were obtained:(6) lnKa=−ΔH^0/RT+ΔS^0/R, (7) ΔG^0=ΔH^0−TΔS^0=−RTlnKa,
The method of Li et al. was referred to and appropriate changes were made. A series of concentrations of porphyrin compounds were mixed with pancreatic lipase (5 mg/mL) at a volume ratio of 1:1 and incubated at 298, 304, and 310 K for 5 min. The excitation wavelength of the Hitachi fluorescence spectrometer F-7000 ([…], Japan) was set to 280 nm, the slit width was set to 5 nm, and the scanning range was set to 300–500 nm. In order to eliminate the influence of ‘internal filtering effect’ [42], the following formula is used for correction. Fcor=Fobse^(Aex+Aem)/2 , where Fcor and Fobs are the corrected fluorescence intensity and the experimentally measured fluorescence intensity, and Aex and Aem are the UV absorption values of the system at the excitation and emission wavelengths, respectively.

Row | IC50 (pancreatic lipase (PL) [1]) | Fluorescence quenching mechanism on PL (pancreatic lipase (PL) [2]) | Kq (quenching rate constant) (pancreatic lipase (PL) [2]; T 298 K) | Ksv (fluorescence quenching constant) (pancreatic lipase (PL) [2]; T 298 K) | n (number of binding sites) (pancreatic lipase (PL) [2]; T 298 K) | ΔG^0 (pancreatic lipase (PL) [2]; T 298 K) | Kd (pancreatic lipase (PL) [2]; T 298 K) | Kq (quenching rate constant) (pancreatic lipase (PL) [2]; T 304 K) | Ksv (fluorescence quenching constant) (pancreatic lipase (PL) [2]; T 304 K) | n (number of binding sites) (pancreatic lipase (PL) [2]; T 304 K) | ΔG^0 (pancreatic lipase (PL) [2]; T 304 K) | Kd (pancreatic lipase (PL) [2]; T 304 K) | Kq (quenching rate constant) (pancreatic lipase (PL) [2]; T 310 K) | Ksv (fluorescence quenching constant) (pancreatic lipase (PL) [2]; T 310 K) | n (number of binding sites) (pancreatic lipase (PL) [2]; T 310 K) | ΔG^0 (pancreatic lipase (PL) [2]; T 310 K) | Kd (pancreatic lipase (PL) [2]; T 310 K) | ΔH^0 (pancreatic lipase (PL) [2]) | ΔS^0 (pancreatic lipase (PL) [2]) | Main driving forces of binding to PL (pancreatic lipase (PL) [2]) | SMILES | further results
1 | 236 µM | static quenching | 9.70 ± 0.11 ×10^12 L/mol/s | 9.70 ± 0.11 ×10^4 L/mol | 1.05 | -7.118 ± 0.012 kcal/mol | 6.02 µM | 8.80 ± 0.06 ×10^12 L/mol/s | 8.80 ± 0.06 ×10^4 L/mol | 1.01 | -6.938 ± 0.017 kcal/mol | 10.3 µM | 8.17 ± 0.08 ×10^12 L/mol/s | 8.17 ± 0.08 ×10^4 L/mol | 0.96 | -6.707 ± 0.014 kcal/mol | 18.5 µM | -17.28 ± 0.012 kcal/mol | −142.66 ± 0.06 J/mol/k | hydrogen bonds and van der Waals forces | Nc1ccc(-c2c3nc(c(-c4ccc(N)cc4)c4ccc([nH]4)c(-c4ccc(N)cc4)c4nc(c(-c5ccc(N)cc5)c5ccc2[nH]5)C=C4)C=C3)cc1 [TAPP, 5,10,15,20-Tetrakis (4-aminophenyl) porphyrin] | –
2 | 249 µM | static quenching | 2.36 ± 0.01 ×10^12 L/mol/s | 2.36 ± 0.01 ×10^4 L/mol | 0.93 | -5.631 ± 0.019 kcal/mol | – | 2.33 ± 0.03 ×10^12 L/mol/s | 2.33 ± 0.03 ×10^4 L/mol | 0.95 | -5.851 ± 0.012 kcal/mol | – | 2.32 ± 0.03 ×10^12 L/mol/s | 2.32 ± 0.03 ×10^4 L/mol | 0.97 | -6.064 ± 0.012 kcal/mol | – | 5.1 ± 0.0096 kcal/mol | 150.70 ± 0.07 J/mol/k | hydrophobic forces | O=C([O-])c1ccc(C2=C3C=CC(=N3)C(c3ccc(C(=O)[O-])cc3)=C3C=CC(=N3)C(=c3ccc(=C([O-])[O-])cc3)c3ccc([n-]3)C(c3ccc(C(=O)[O-])cc3)=C3C=CC2=N3)cc1.[67Cu+2].[H+].[H+].[H+].[H+] [Cu-TCPP, Cu (II) meso-Tetra (4-carboxyphenyl) porphine] | Ka (binding constant) (pancreatic lipase (PL) [2]; T 298 K): 0.13 ± 0.01 ×10^5 L/mol; Ka (binding constant) (pancreatic lipase (PL) [2]; T 304 K): 0.16 ± 0.01 ×10^5 L/mol; Ka (binding constant) (pancreatic lipase (PL) [2]; T 310 K): 0.19 ± 0.01 ×10^5 L/mol
3 | 100 µM | static quenching | 4.60 ± 0.07 ×10^12 L/mol/s | 4.60 ± 0.07 ×10^4 L/mol | 1.30 | -8.076 ± 0.0096 kcal/mol | 1.19 µM | 4.59 ± 0.06 ×10^12 L/mol/s | 4.59 ± 0.06 ×10^4 L/mol | 1.26 | -7.945 ± 0.0311 kcal/mol | 1.94 µM | 4.50 ± 0.06 ×10^12 L/mol/s | 4.50 ± 0.06 ×10^4 L/mol | 1.16 | -7.739 ± 0.019 kcal/mol | 3.5 µM | -16.39 ± 0.017 kcal/mol | −116.60 ± 0.11 J/mol/k | hydrogen bonds and van der Waals forces | O=C(O)c1ccc(-c2c3nc(c(-c4ccc(C(=O)O)cc4)c4ccc([nH]4)c(-c4ccc(C(=O)O)cc4)c4nc(c(-c5ccc(C(=O)O)cc5)c5ccc2[nH]5)C=C4)C=C3)cc1 [TCPP, meso-Tetra (4-carboxyphenyl) porphine] | –

Row | SMILES | IC50 (pancreatic lipase (PL) [1]) | Fluorescence quenching mechanism on PL (pancreatic lipase (PL) [2]) | Kq (quenching rate constant) (pancreatic lipase (PL) [2]; T 298 K) | Ksv (fluorescence quenching constant) (pancreatic lipase (PL) [2]; T 298 K) | n (number of binding sites) (pancreatic lipase (PL) [2]; T 298 K) | ΔG^0 (pancreatic lipase (PL) [2]; T 298 K) | Kd (pancreatic lipase (PL) [2]; T 298 K) | Kq (quenching rate constant) (pancreatic lipase (PL) [2]; T 304 K) | Ksv (fluorescence quenching constant) (pancreatic lipase (PL) [2]; T 304 K) | n (number of binding sites) (pancreatic lipase (PL) [2]; T 304 K) | ΔG^0 (pancreatic lipase (PL) [2]; T 304 K) | Kd (pancreatic lipase (PL) [2]; T 304 K) | Kq (quenching rate constant) (pancreatic lipase (PL) [2]; T 310 K) | Ksv (fluorescence quenching constant) (pancreatic lipase (PL) [2]; T 310 K) | n (number of binding sites) (pancreatic lipase (PL) [2]; T 310 K) | ΔG^0 (pancreatic lipase (PL) [2]; T 310 K) | Kd (pancreatic lipase (PL) [2]; T 310 K) | ΔH^0 (pancreatic lipase (PL) [2]) | ΔS^0 (pancreatic lipase (PL) [2]) | Main driving forces of binding to PL (pancreatic lipase (PL) [2]) | further results
4 | Oc1ccc(-c2c3nc(c(-c4ccc(O)cc4)c4ccc([nH]4)c(-c4ccc(O)cc4)c4nc(c(-c5ccc(O)cc5)c5ccc2[nH]5)C=C4)C=C3)cc1 [THPP, 5,10,15,20-Tetrakis (4-hydroxyphenyl) porphyrin] | 97.5 µM | mixed quenching dominated by static quenching and supplemented by dynamic quenching | 1.36 ± 0.02 ×10^12 L/mol/s | 1.36 ± 0.02 ×10^4 L/mol | 1.52 | -8.91 ± 0.0406 kcal/mol | 0.292 µM | 1.17 ± 0.03 ×10^12 L/mol/s | 1.17 ± 0.03 ×10^4 L/mol | 1.38 | -8.363 ± 0.0263 kcal/mol | 0.968 µM | 1.11 ± 0.04 ×10^12 L/mol/s | 1.11 ± 0.04 ×10^4 L/mol | 1.33 | -8.023 ± 0.022 kcal/mol | 2.2 µM | -30.946 ± 0.0263 kcal/mol | −309.86 ± 0.12 J/mol/k | hydrogen bonds and van der Waals forces | –
